Results reported in US12162892B2, “CD16a binding agents and uses thereof” (KLEO PHARMACEUTICALS, INC., priority 2018, dated 2024).
Several values for one entry are separate records, joined by “and”; a condition that tells them apart may be missing. Identical values can stand only once.

Legend:
primary monocytes = assay: ADCP assay using fresh primary monocytes; assay type: cell-based, human; details: beads loaded with test compound at 50 uM; 37C for 18 hrs
Procedure: (§1) Biotinylated fluorescent beads (Invitrogen, cat #P35372) were thoroughly mixed by vortexing for 1 min. Ten microliters of supplied bead suspension per treatment type were dispensed in Eppendorf tubes, and washed with 1 ml PBS […], then re-suspended in 500 uL of 1% BSA in PBS. Test compounds were added to bead suspensions to a final concentration of 50 uM, and biotinylated human IgG whole molecule (Rockland 009-0602) final concentration of 20 ug/mL.
(§2) Tubes were incubated at room temperature for 1 hr on a rocking platform.
(§3) Following incubation, beads were pelleted in a microcentrifuge at 12,000 g for 5 minutes at room temperature. Supernatants were carefully aspirated and beads were washed 5 times by resuspending in 1 ml of PBS 1% BSA, and centrifuging as described above. Finally, beads were resuspended in 500 ul of PBS 1% BSA and used in ADCP assay.
PBMC, freshly isolated from whole blood (Bioreclamation IVT0) using Ficoll-Paque density centrifugation were resuspended in serum-free, supplemented RPMI at 2×10^6 cells/mL.
Ten milliliters of the resulting cell suspension was seeded into 75-cm^2 tissue culture flask (Denville Scientific TC9341) and incubated 2-3 hr at 37° C. 5% CO2 to allow cell adhesion. Following incubation, media was decanted and surface of the flask was carefully washed twice, each time with 10 ml serum-free, supplemented RPMI to remove any residual non-adherent cells. To remove adherent cells, 10 mL of ice-cold 2.5 mM EDTA/PBS solution was added for 10 min on ice. Cells were transferred to a 15-ml conical tube and centrifuge 10 min at 300×g, room temperature, to remove the EDTA/PBS solution. Monocytes were then resuspended in RPMI 10% FCS at 5×10^5 cells/mL to be used in ADCP assay. Monocyte purity was assessed by staining cells with antibodies to human CD3 FITC (Biolegend 300306), CD19 PeCy7 (Biolegend 302216), CD14 BV421 (BD Biosciences, 565283), and CD16 (Biolegend 302046).
(§4) Monocytes or THP-1 cells (TIB-202 ATCC) were seeded into 96 well round bottom 96 well plates at the density of 10^5 cells per well in 200 ul, and 10 uL of fluorescent bead suspension prepared as described above was added to each well. Well contents were mixed by pipetting up and down using a multichannel pipet, and plates were incubated at 37C for 18 hrs. After incubation, well contents were transferred into flat bottom black 96 well plates (Costar #3358) and centrifuged for 2 minutes at 300 g to allow for better visualization of the cells. Images were taken using Zoe fluorescent cell imager (Biorad).

CD16a158F [1] = target: T1, CD16a158F (Homo sapiens, UniProt P08637); assay: Biotinylated Ligand ELISA Assay; assay type: binding; parameters: purchased Acro Biosystems CDA-H82E8; details: Biotinylated CD16a protein at 10 nM
T1 sequence (P08637 17-208 limits assumed): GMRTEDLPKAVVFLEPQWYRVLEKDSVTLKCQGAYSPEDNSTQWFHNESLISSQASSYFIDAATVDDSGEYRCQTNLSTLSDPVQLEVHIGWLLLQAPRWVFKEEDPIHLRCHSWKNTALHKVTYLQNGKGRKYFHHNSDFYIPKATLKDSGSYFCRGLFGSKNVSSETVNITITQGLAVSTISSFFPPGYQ
Procedure: (§5) Coat ELISA plates (Costar 3922) using Neutravidin (Thermo 31000) at 5 μg/ml (100 μl/well) for 1 hour at 37° C. Plates were washed 4 times with PBST (PBS, 0.05% Tween 20-200 μl, 1 minute/wash) then blocked using 200 μl 5% bovine serum albumin (BSA, Heat Shock, Fraction V-American Bio AB01088-00100) in PBST for 2 hours at 25° C. with moderate shaking. BSA was removed and plates were washed. Biotinylated ligands diluted in PBSTB (PBST+0.1% BSA) were then added (100 μl/well) and incubated for 1 hour at 25° C. with gentle shaking. Ligands were removed and plates were washed. Any remaining unoccupied neutravidin binding sites were blocked by adding 100 μM Biotin (Fisher BP232-1) (100 μl/well) and incubated for 1 hour at 25° C. with gentle shaking. Plates were then washed. […] Protein was removed and plates were washed. Streptavidin-HRP (Invitrogen 434323) diluted 1:5000 in PBSTB was added (100 μl/well) and incubated for 1 hour at 25° C. with gentle shaking. Wash plates. Substrate (Super Signal ELISA Pico Chemiluminescent Substrate-Thermo 37069) was added (100 μl/well) and plates were incubated for 5 minutes at 25° C. with gentle shaking. Luminescence was then measured on the Biotek Synergy H1 microplate reader.

[2] = Biotin ELISA, No Protein (Example 55); assay type: binding; details: three replicate values per compound
Procedure: as §5
(§6) Using similar methods as Examples 47 or 53, interactions with a number of receptors were measured. In some embodiments, “stock” is antibody only, and “control” is an antibody that went through the same procedure except using DMSO only as opposed to a compound. When contacted with targeting moieties such as antibodies in the Examples, compounds, e.g., I-95, I-96, etc. can react through their reactive groups

CD16a158V [3] = target: T2, CD16a158V (Homo sapiens, UniProt P08637, F176V); assay: Biotinylated Ligand ELISA Assay; assay type: binding; details: Biotinylated CD16a protein at 10 nM
T2 sequence (P08637 17-208 F176V): as the sequence (P08637 17-208 limits assumed) above, with F160V counted along it
Procedure: as §5

CD16a158F [4] = target: T1, CD16a158F; assay: Biotin ELISA, interaction with various receptors (Example 55); assay type: binding; details: three replicate values per compound
Procedure: as §5, §6

CD3ed = CD3ed (Homo sapiens, UniProt P04234+P07766); assay: as above; assay type: binding; details: three replicate values per compound
Sequence of CD3ed (P07766 23-126 limits assumed): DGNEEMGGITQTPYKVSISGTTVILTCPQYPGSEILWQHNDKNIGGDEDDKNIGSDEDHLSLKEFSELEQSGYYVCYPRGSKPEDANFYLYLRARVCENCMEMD
Sequence of CD3ed (P04234 22-105 limits assumed): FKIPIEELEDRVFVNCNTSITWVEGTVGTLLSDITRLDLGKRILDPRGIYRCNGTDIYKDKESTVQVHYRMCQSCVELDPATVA
Procedure: as §5, §6

CD64 = CD64 (Homo sapiens, UniProt P12314); assay: as above; assay type: binding; details: three replicate values per compound
Sequence of CD64 (P12314 16-374): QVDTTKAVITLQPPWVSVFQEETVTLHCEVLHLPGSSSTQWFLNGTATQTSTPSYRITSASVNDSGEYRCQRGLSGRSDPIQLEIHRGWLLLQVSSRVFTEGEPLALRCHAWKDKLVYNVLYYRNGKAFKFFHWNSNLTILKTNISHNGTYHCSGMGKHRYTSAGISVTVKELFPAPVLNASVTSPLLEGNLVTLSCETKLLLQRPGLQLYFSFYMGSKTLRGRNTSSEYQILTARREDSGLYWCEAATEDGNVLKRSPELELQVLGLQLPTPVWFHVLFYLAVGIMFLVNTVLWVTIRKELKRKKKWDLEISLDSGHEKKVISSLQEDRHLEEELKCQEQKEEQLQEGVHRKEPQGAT
Procedure: as §5, §6

CD32a H167 = target: T3, CD32a H167 (Homo sapiens, UniProt P12318); assay: as above; assay type: binding; details: three replicate values per compound
T3 sequence (P12318 36-218 limits assumed): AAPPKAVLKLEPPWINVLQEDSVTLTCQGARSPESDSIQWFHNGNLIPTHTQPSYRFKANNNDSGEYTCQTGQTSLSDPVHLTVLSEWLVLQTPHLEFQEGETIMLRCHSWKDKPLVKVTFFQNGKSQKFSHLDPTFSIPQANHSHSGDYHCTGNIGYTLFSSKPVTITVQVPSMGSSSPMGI
Procedure: as §5, §6

CD32a-R167 = assay: as above; assay type: binding; details: three replicate values per compound
Procedure: as §5, §6

CD32b = target: T4, CD32b (Homo sapiens, UniProt P31994); assay: as above; assay type: binding; details: three replicate values per compound
T4 sequence (P31994 43-310): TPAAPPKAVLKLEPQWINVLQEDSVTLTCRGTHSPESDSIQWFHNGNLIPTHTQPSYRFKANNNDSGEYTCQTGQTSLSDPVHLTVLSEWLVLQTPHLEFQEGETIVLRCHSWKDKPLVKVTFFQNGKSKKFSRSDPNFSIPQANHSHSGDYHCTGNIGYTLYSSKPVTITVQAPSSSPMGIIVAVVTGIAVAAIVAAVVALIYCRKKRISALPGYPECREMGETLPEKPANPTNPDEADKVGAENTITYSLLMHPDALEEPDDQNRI
Procedure: as §5, §6

CD16a158V [5] = target: T2, CD16a158V; assay: as above; assay type: binding; details: three replicate values per compound
Procedure: as §5, §6

[6] = test system: CD16a negative THP1 cells; assay: ADCP assay using THP-1 cells; assay type: cell-based; details: beads loaded with test compound at 50 uM; 37C for 18 hrs
Procedure: as §1, §2, §3, §4

CD16a158V [7] = target: T2, CD16a158V; assay: Microscale Thermophoresis; assay type: binding; details: read-out: MST-CD16a158V KD
Procedure: Target proteins (poly-histidine tagged, 600 nM) were fluorescently labeled combination with an equal volume of dye (200 nM, His-Tag labeling kit RED-tris-NTA NanoTemper: MO-L008) PBST. The mixture rotated in the dark for 45 min before being spun down at 12000 rpm for 15 min to remove uncomplexed material. The fluorescence of the removed supernatant was adjusted to for a test concentration of 40-80 nM (2× the final measured). Test ligands were prepared across a 12-point dilution series in a 96-well PCR plate at a volume of 20 uL at 2× the concentration desired for testing (0.2% BSA in PBST). The dilution series was then combined with an equal volume of the labeled target at 2× the concentration desired for testing. Capillaries were added to the wells of the combined target/ligand complex and measured by MST. Measurements were taken using a Nanotemper Monolith NT.115, and the data was analyzed using NanoTemper MO.Control software.

Compound | ACDP (primary monocytes)-normalized phagocytosis score (primary monocytes) | Biotinylated Ligand ELISA-CD16a158F Binding (RLU) (CD16a158F [1]) | Biotin ELISA Results No Protein [2] | Biotinylated Ligand ELISA-CD16a158V Binding (RLU) (CD16a158V [3]) | Biotin ELISA Results CD16a-158F (CD16a158F [4]) | Biotin ELISA Results CD3ed (CD3ed) | Biotin ELISA Results CD64 (CD64) | Biotin ELISA Results CD32a-H167 (CD32a H167) | Biotin ELISA Results CD32a-R167 (CD32a-R167) | Biotin ELISA Results CD32b (CD32b) | Biotin ELISA Results CD16a-158V (CD16a158V [5]) | ACDP (CD16a negative THP1 cells)-normalized phagocytosis score [6] | Kd (CD16a158V [7]) [nM]
O=C(CCCC[C@@H]1SC[C@@H]2NC(=O)N[C@@H]21)NCCOCCOCCOCCOCCOCCOCCOCCOCCn1cc(-c2ccc(NC(=O)N3CCC4(CC3)NC(=O)N(Cc3ccccc3)C4=O)cc2)nn1 [Compound I-17, N-{4-[1-(26-{5-[(3aS,4S,6aR)-2-oxo-hexahydro-1H-thieno[3,4-d]imidazol-4-yl]pentanamido}-3,6,9,12,15,18,21,24-octaoxahexacosan-1-yl)-1H-1,2,3-triazol-4-yl]phenyl}-3-benzyl-2,4-dioxo-1,3,8-triazaspiro[4.5]decane-8-carboxamide] | C (a normalized phagocytosis score of 1.0-1.5) | D (a relative luminescence value (RLU) of 1-1,000) | −236 and −272 and 237 | D (a relative luminescence value (RLU) of 1-1,000) | 122 and 5830 and 2636 | 1412 and 1083 and 1250 | 44623 and 46028 and 52372 | 1642 and 1978 and 2246 | 11182 and 5954 and 10675 | 2439 and 955 and 1191 | 443 and 2316 and 1591 | B (a normalized phagocytosis score of 1.5-2.0) | –
O=C(CCCC[C@@H]1SC[C@@H]2NC(=O)N[C@@H]21)NCCOCCOCCOCCOCCOCCOCCOCCOCCNC(=O)c1cnc(N2CCC3(CC2)NC(=O)C(Nc2ccccc2)C3=O)nc1 (stereo partly drawn) [Compound I-21] | C (a normalized phagocytosis score of 1.0-1.5) | A (a relative luminescence value (RLU) of >100,000) | 7902 and 6992 and 7029 | A (a relative luminescence value (RLU) of >100,000) | 6775 and 6468 and 5831 | 8285 and 6369 and 7518 | 98211 and 69008 and 131784 | 15126 and 14461 and 15658 | 12004 and 10942 and 9796 | 14249 and 14080 and 11349 | 5747 and 5338 and 6303 | D (a normalized phagocytosis score of 0.5-1.0) | –
O=C(CCCC[C@@H]1SC[C@@H]2NC(=O)N[C@@H]21)NCCOCCOCCOCCOCCOCCOCCOCCOCCn1cc(-c2ccc(NC(=O)C3CC(=O)N(c4ccccc4)C3)cc2)nn1 (stereo partly drawn) [Compound I-36] | B (a normalized phagocytosis score of 1.5-2.0) | C (a relative luminescence value (RLU) of 1,000-10,000) | −764 and −989 and −154 | C (a relative luminescence value (RLU) of 1,000-10,000) | 2154 and −1155 and −213 | 1016 and −29 and −4459 | 54153 and 79621 and 89966 | 1138 and 43 and 249 | 280 and −228 and −1215 | 98 and 1052 and 486 | −378 and −180 and −282 | B (a normalized phagocytosis score of 1.5-2.0) | 1 to 100
COc1ccc(OC)c(N2CC(C(=O)Nc3ccc(-c4cn(CCOCCOCCOCCOCCOCCOCCOCCOCCNC(=O)CCCC[C@@H]5SC[C@@H]6NC(=O)N[C@@H]65)nn4)cc3)CC2=O)c1 (stereo partly drawn) [Compound I-39] | B (a normalized phagocytosis score of 1.5-2.0) | C (a relative luminescence value (RLU) of 1,000-10,000) | – | C (a relative luminescence value (RLU) of 1,000-10,000) | – | – | – | – | – | – | – | B (a normalized phagocytosis score of 1.5-2.0) | 100 to 500
